Source: patent publication EP1121436B1, “NON-DESENSITIZING AMPA-RECEPTORS” (Max-Planck-Gesellschaft zur Förderung der Wissenschaften …, priority 1998, dated 2000)

Tests used:
GluR3-S1 chimeras = assay: Responses to saturating kainate concentrations compared with glutamate (outside-out patch); assay type: cell-based, rat; conditions: saturating kainate concentrations (5-10 mM)
GluR3 L507Y = target: T1, GluR3 L507Y (Rattus norvegicus, UniProt P19492, L507Y); assay: Responses to quisqualate and AMPA and effect of cyclothiazide (outside-out patch); assay type: cell-based
T1 construct: expressed in transfected cells; host or cells: HEK293, transient, pCDNA3

R3(R6S1) = assay: Effect of cyclothiazide on the peak response to glutamate (outside-out patch); assay type: cell-based, rat; conditions: 100 µM cyclothiazide added to the agonist solution, n=10
R6TM1R3 = target: T2, R6TM1R3 (Rattus norvegicus, UniProt P19492+P42260, A582S/A630S/C576V/C595R/D598Q/D600P/D669E/D672E/E603P/E625D/E665V/E681A/F612L/G615S/H593E/I581V/I639V/INS589HLED/INS599P/K629R/K679E/L568V/L569F/L572I/L608I/L609F/L619F/L626I/M627S/N596D/N605E/P592E/S624C/T607G/T633G/V580L/V601D/V602P/V616L/Y566C/Y590N); assay: as above; assay type: cell-based; conditions: 100 µM cyclothiazide added to the agonist solution, n=13
T2 construct: the entire extracellular N-terminal region of GluR3flip was substituted by the corresponding region of GluR6; expressed in transfected cells; host or cells: HEK293, transient

[1] = test system: T504A, E511K or their combined exchange; assay type: cell-based, rat
GluR3flip = target: T3, GluR3flip (Rattus norvegicus, UniProt P19492); assay: Block of desensitization by cyclothiazide added to the agonist solution (outside-out patch); assay type: cell-based; conditions: cyclothiazide 100µM added to the agonist solution (10 mM glutamate)
T3 construct: expressed in transfected cells; host or cells: HEK293 (ATCC CRL 1573), transient, pcDNA3

R6TM1R3(Y521L) = target: T4, R6TM1R3(Y521L) (Rattus norvegicus, UniProt P19492+P42260, A582S/A630S/C576V/C595R/D598Q/D600P/D669E/D672E/E603P/E625D/E665V/E681A/F612L/G615S/H593E/I581V/I639V/INS589HLED/INS599P/K629R/K679E/L568V/L569F/L572I/L608I/L609F/L619F/L626I/M627S/N596D/N605E/P592E/S624C/T607G/T633G/V580L/V601D/V602P/V616L/Y521L/Y566C/Y590N); assay: Responses to kainate and effect of cyclothiazide (outside-out patch); assay type: cell-based; conditions: glutamate evoked current in the presence of 100 µM cyclothiazide
T4 construct: the entire extracellular N-terminal region of GluR3flip was substituted by the corresponding region of GluR6; expressed in transfected cells; host or cells: HEK293, transient
T4 sequence (P42260+P19492 fused with the stated changes): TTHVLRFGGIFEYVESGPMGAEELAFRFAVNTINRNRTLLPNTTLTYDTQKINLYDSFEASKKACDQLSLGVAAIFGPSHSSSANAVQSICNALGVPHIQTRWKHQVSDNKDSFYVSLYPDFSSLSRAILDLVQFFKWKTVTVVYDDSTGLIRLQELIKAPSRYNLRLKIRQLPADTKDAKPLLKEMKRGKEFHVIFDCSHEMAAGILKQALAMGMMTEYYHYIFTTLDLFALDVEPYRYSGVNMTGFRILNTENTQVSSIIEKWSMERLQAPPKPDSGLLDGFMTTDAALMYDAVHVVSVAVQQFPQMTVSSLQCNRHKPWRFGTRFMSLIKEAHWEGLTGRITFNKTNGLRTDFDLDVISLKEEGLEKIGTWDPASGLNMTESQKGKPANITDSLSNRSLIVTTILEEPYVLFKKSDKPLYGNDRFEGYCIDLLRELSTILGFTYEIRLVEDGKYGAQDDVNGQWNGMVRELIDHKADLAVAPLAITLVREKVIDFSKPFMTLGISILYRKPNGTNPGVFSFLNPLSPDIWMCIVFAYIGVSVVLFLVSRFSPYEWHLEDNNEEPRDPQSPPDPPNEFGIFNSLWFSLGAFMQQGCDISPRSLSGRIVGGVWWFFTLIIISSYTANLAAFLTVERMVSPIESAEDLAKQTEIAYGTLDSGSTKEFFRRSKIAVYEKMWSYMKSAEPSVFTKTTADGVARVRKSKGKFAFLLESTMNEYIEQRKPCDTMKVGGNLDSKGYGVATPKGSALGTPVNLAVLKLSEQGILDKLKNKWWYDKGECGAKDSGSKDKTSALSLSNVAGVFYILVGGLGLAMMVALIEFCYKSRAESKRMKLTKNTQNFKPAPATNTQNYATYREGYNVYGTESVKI

T1 sequence (P19492 23-888 isoform P19492-2 L507Y limits assumed): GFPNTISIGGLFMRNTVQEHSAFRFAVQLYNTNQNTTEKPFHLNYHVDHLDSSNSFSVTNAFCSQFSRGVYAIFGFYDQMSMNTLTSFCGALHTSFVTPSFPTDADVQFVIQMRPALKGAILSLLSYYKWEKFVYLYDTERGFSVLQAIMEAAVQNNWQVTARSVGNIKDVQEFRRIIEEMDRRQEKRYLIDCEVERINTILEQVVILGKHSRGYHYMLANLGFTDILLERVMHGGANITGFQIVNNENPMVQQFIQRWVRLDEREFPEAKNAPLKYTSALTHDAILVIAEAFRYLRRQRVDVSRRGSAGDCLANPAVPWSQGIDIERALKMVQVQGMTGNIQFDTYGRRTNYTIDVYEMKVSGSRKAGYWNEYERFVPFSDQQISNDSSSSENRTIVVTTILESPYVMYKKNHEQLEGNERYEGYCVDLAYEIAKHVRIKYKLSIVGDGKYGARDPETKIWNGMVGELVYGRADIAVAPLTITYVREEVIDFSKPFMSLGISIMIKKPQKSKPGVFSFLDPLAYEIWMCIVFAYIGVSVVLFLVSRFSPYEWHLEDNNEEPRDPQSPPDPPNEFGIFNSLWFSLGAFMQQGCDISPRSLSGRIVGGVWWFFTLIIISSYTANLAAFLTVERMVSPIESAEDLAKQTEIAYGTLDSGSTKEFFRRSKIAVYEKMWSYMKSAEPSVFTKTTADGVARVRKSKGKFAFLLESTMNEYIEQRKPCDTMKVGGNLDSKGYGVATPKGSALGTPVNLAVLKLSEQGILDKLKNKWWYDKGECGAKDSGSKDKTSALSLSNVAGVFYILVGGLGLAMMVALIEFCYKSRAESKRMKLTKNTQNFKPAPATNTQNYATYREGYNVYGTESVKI
T2 sequence (P42260+P19492 fused with the stated changes): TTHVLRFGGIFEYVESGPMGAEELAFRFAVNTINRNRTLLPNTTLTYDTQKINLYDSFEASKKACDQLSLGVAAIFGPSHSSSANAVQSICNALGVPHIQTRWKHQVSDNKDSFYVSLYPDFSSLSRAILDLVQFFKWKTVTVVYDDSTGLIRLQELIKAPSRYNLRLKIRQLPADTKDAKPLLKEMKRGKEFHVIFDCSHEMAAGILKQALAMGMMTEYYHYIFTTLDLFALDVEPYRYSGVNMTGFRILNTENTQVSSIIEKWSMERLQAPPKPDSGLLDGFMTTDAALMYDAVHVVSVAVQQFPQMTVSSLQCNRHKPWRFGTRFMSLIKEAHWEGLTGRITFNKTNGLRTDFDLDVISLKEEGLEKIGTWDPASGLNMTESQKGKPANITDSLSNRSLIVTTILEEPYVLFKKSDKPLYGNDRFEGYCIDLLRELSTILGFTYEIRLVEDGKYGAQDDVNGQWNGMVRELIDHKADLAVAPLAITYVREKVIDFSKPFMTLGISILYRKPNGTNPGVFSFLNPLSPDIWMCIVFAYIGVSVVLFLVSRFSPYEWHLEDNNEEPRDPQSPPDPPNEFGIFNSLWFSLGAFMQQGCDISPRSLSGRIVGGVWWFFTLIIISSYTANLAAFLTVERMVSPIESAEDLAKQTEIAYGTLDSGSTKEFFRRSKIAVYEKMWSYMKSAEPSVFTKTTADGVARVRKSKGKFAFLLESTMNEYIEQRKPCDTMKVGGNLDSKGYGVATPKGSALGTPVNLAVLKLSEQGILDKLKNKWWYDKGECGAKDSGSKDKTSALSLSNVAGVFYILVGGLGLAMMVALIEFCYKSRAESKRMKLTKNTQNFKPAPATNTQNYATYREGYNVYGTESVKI
T3 sequence (P19492 23-888 isoform P19492-2 limits assumed): as the sequence (P19492 23-888 isoform P19492-2 L507Y limits assumed) above, with Y485L counted along it

C=C(C)[C@H]1CN[C@H](C(=O)O)[C@H]1CC(=O)O [kainate]
desensitization of responses (result in words) (GluR3-S1 chimeras): essentially non-desensitizing

Cc1onc(O)c1CC(N)C(=O)O (racemic) [AMPA, (RS)-alpha-amino-3-hydroxy-5-methyl-4-isoxazoleepropionic acid]
P/S (GluR3 L507Y; agonist 1 mM): 1.05±0.03
efficacy of opening, ratio glutamate/agonist (GluR3 L507Y; n=7): 0.97±0.03

NS(=O)(=O)c1cc2c(cc1Cl)NC(C1CC3C=CC1C3)NS2(=O)=O (stereo not drawn) [cyclothiazide]
inhibition of the peak response (R3(R6S1)): 12±3%
inhibition at 100 µM (R6TM1R3): 14 ± 4%
effect on desensitization (result in words) [1]: completely blocked
reduction of peak response (GluR3 L507Y; cyclothiazide (100 µM)): 9.6±2.7%
P/S values (GluR3flip): ~1
effect on desensitization (result in words) (R6TM1R3(Y521L)): Desensitization was blocked
